Results published in patent US20250255845A1, “USE OF INTERLEUKIN (IL)-17A INHIBITOR IN PREPARATION OF MEDICAMENT FOR TREATING INFLAMMATORY DISEASE” (Xiangnan University, priority 2024, published 2025).

Legend:
Format in all cases: cell-based, mouse
IL-6 mRNA = experiment: Real-time fluorescence quantitative PCR, LPS-induced IL-6 mRNA in RAW264.7 cells
Procedure: (§1) RAW264.7 cell culture: mouse mononuclear macrophages (RAW264.7, ATCC) are cultured in a complete medium containing 10% fetal bovine serum (FBS), 1% double antibodies (penicillin and streptomycin), and 89% DMEM at 37° C. and 5% CO2. In this experiment, RAW264.7 cells from passages 3 to 8 are used for related test.
(§2) LPS (100 ng/ml) is added for stimulation, with or without Tan, and the cell supernatant is collected to detect the contents of NO, IL-23, IL-17A, TNF-α, and IL-6 in the cell supernatant. The cell lysate is collected and the protein expressions (STAT3, p-STAT3 (Ser727), and p-STAT3 (Tyr705)) are detected by Western blot. Total cell RNA is extracted and real-time fluorescence quantitative polymerase chain reaction (PCR) is conducted to detect the expression levels of IL-23, IL-17A, TNF-α, and IL-6 mRNA.
(§3) RAW264.7 cells were inoculated into 6-well plate and the cell density was adjusted to 5.0×10^6 cells/well. […] The fluorescence intensity of each sample was detected according to the instructions of the real-time fluorescence quantitative PCR kit and specific primers (Table 1) (cycle conditions: enzyme activation 95° C. for 3 min, 1 cycle; denaturation 95° C. for 15 s, annealing/extension 60° C. for 1 min, 40 cycles). The mRNA expression level of each group was normalized with the GAPDH expression level, and the relative expression of mRNA was calculated using the 2^−ΔΔCt method.

TNF-α mRNA = experiment: Real-time fluorescence quantitative PCR, LPS-induced TNF-α mRNA in RAW264.7 cells
Procedure: as §1, §2, §3

RAW264.7 cells = experiment: CCK-8 cell viability / cytotoxicity; conditions: 24 h
Procedure: RAW264.7 cell culture: mouse mononuclear macrophages (RAW264.7, ATCC) are cultured in a complete medium containing 10% fetal bovine serum (FBS), 1% double antibodies (penicillin and streptomycin), and 89% DMEM at 37° C. and 5% CO2. In this experiment, RAW264.7 cells from passages 3 to 8 are used for related test. RAW264.7 cells in the logarithmic growth phase were inoculated into a 96-well plate and the cell density was adjusted to 5×10^3 cells/well. After cultured for 24 h, the cells were stably adhered to the wall. The original complete medium was removed and different concentrations of Tan (5, 10, 20, 40, 80, 160, 320 μM) were added to allow treatment with or without LPS (100 ng/ml) for 24 h. Then, 10 μL of CCK-8 solution was added to each well and incubated at 37° C. for 1 h. The OD value of each sample at 450 nm was detected by a microplate reader, and the cell viability was calculated.

p-STAT3 (Tyr 705) = experiment: Western blot of p-STAT3 (Tyr 705) in LPS-induced RAW264.7 cells
Procedure: as §1, §2
(§4) RAW264.7 cells in the logarithmic growth phase were inoculated in 100 mm culture dishes, and the cell density was adjusted to 1.6×10^6 cells/dish. […] The supernatant was collected by centrifugation at 4° C., 12,000 rpm for 5 min, and the protein concentration was determined by BCA method. […] Enhanced Chemiluminescence (ECL) color development was used for detection, and protein band quantification was performed using Image J software.

p-STAT3 (Ser 727) = experiment: Western blot of p-STAT3 (Ser 727) in LPS-induced RAW264.7 cells
Procedure: as §1, §2
RAW264.7 cells in the logarithmic growth phase were inoculated in 100 mm culture dishes, and the cell density was adjusted to 1.6×10^6 cells/dish. After cultured for 24 h, different concentrations (5, 10, 20, 40 μM) of Tan were added to allow pretreatment for 2 h, and LPS (100 ng/ml) was added to allow incubation for 24 h. The original medium was removed, and the cells were washed 2 times with pre-cooled PBS buffer. Then, protein lysis buffer (300 μL per dish) was added for lysis on ice for 30 min. The supernatant was collected by centrifugation at 4° C., 12,000 rpm for 5 min, and the protein concentration was determined by BCA method. Next, 60 μg of total protein sample was loaded, separated by 10% Sodium Dodecyl Sulfate Polyacrylamide Gel Electrophoresis (SDS-PAGE) gel, and transferred to Polyvinylidene Fluoride (PVDF) membrane by electrophoresis. The membrane was blocked with 5% skim milk at room temperature for 1 h, and 3 mL of GAPDH, STAT3, p-STAT3 (Ser727), and p-STAT3 (Tyr705) antibodies were added and incubated overnight at 4°° C. […] Enhanced Chemiluminescence (ECL) color development was used for detection, and protein band quantification was performed using Image J software.

STAT3 = experiment: Western blot of STAT3 in LPS-induced RAW264.7 cells; conditions: 5-40 μM, among treatment groups; P>0.05
Procedure: as §1, §2, §4

[1] = 5-40 μM, 24 h, vs LPS, P<0.001, dose-dependent
[2] = 5-40 μM, vs LPS group, P<0.001, dose-dependent

## COc1ccc(-c2cc(=O)c3c(OC)c(OC)c(OC)c(OC)c3o2)cc1 [Tan, tangeretin]
IL-6 mRNA; 40 μM
  inhibitory effect on IL-6 mRNA compared with positive control Clo: comparable to that of the positive control Clo
IL-6 mRNA; [1]
  relative expression level of IL-6 mRNA: significantly decreased
TNF-α mRNA; 40 μM
  inhibitory effect on TNF-α mRNA compared with positive control Clo: comparable to that of the positive control Clo
TNF-α mRNA; [1]
  relative expression level of TNF-α mRNA: significantly decreased
RAW264.7 cells; 0-40 μM, P>0.05
  toxicity to RAW264.7 cells (cell viability): did not produce significant toxicity
RAW264.7 cells; Tan concentration higher than 40 μM, P<0.05
  cell viability of RAW264.7 cells: decreased
p-STAT3 (Tyr 705); 40 μM
  suppression of STAT3 phosphorylation (Tyr 705) compared with positive control Clo: comparable efficacy to the positive control
p-STAT3 (Tyr 705); [2]
  expression of p-STAT3 (Tyr 705) protein: inhibited
p-STAT3 (Ser 727)
  suppression of p-STAT3 (Ser 727) relative to p-STAT3 (Tyr 705): more pronounced suppression
p-STAT3 (Ser 727); 40 μM
  suppression of STAT3 phosphorylation (Ser 727) compared with positive control Clo: comparable efficacy to the positive control
p-STAT3 (Ser 727); [2]
  expression of p-STAT3 (Ser 727) protein: inhibited
STAT3
  STAT3 protein expression: no statistically significant change
